Data taken from patent US10414811B2, “Protease-resistant lipidated GLP-1 analogs” (MEDIMMUNE LIMITED, priority 2015, dated 2019).
Read-outs that look alike come from different tables or passages of the source. Numbered stars: 1 amine (or outer) side, 2 acyl side, 3 side chain; on linkers, the order of the positions; unused ones are H or OH. Square brackets hold non-standard residues; d marks the D form. Side chains are listed from the residue outwards. Peptide text beside a SMILES is read from it. * marks the point of attachment. γGlu = O=C(O)[C@H](CCC(=O)[*:2])N[*:1]; αMeF = C[C@](N)(Cc1ccccc1)C(=O)O; αMeK = C[C@](N)(CCCCN)C(=O)O; Lauroyl = CCCCCCCCCCCC(=O)*; αMeS = C[C@](N)(CO)C(=O)O; AEEA = NCCOCCOCC(=O)O; Aib = CC(C)(N)C(=O)O

Tests used:
Assay type in all cases: cell-based
[1] = target: T1, human GLP-1 receptor (GLP-1R) (Homo sapiens, UniProt P43220); assay: cAMP assay, human GLP-1R cells
T1 construct: expressed in transfected cells
Procedure, shortened: (§1)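 Peptide-stimulated cAMP measured by two-step HTRF after a 30 min room-temperature incubation with receptor-expressing cells (hGLP-1R, hGIPR at 1×10^5 cells/ml; hGCGR at 2×10^5 cells/ml). Duplicate dilutions; EC50 from 4-parameter logistic fit of % Delta F.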

[2] = target: T2, human glucagon receptor (GCGR) (Homo sapiens, UniProt P47871); assay: cAMP assay, human GCGR cells
T2 construct: expressed in transfected cells
Procedure, shortened: as §1

[3] = target: T3, human glucose-dependent insulinotropic peptide receptor (GIPR) (Homo sapiens, UniProt P48546); assay: cAMP assay, human GIPR cells
T3 construct: expressed in transfected cells
T3 sequence (P48546 22-466): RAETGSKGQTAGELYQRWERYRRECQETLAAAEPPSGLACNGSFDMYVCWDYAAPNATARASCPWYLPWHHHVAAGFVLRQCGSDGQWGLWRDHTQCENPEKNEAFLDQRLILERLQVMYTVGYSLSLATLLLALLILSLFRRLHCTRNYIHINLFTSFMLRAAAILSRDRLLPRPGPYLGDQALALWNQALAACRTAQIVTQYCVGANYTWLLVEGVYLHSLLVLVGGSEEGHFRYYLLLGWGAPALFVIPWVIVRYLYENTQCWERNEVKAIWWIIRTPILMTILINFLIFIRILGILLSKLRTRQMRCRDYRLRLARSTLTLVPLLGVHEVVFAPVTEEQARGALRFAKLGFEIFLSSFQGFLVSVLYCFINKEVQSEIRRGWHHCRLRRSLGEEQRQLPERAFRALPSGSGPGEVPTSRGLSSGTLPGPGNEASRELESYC
Procedure, shortened: as §1

GLP-1R (INS1e assay) = target: T4, GLP-1R (INS1e assay) (Rattus norvegicus, UniProt P32301); assay: INS1e assay, cAMP activity at GLP-1R
T4 construct: endogenous in cells; host or cells: INS-1E cells
T4 sequence (P32301 22-463): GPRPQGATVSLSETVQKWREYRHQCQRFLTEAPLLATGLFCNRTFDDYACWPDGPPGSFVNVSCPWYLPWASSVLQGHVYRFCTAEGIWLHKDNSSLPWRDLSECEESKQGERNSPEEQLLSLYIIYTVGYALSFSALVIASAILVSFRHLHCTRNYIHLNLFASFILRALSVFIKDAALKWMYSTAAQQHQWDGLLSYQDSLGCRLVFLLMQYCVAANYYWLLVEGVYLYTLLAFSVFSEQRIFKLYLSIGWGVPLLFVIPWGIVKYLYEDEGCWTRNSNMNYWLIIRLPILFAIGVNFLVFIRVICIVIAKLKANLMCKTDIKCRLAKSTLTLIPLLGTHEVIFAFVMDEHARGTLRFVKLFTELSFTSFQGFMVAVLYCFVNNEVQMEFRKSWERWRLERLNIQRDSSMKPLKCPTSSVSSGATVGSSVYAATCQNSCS
Procedure, shortened: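 cAMP was quantified by two-step HTRF, using anti-cAMP cryptate donor and cAMP-d2 acceptor, each diluted 1/20 in conjugate and lysis buffer. EC50 values of the synthetic peptides were derived from the cAMP readout.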

[4] = first run (n1), cAMP activity, read-out: Primary assay EC50 GLP-1R n1
[5] = mean of n1 and n2, read-out: Mean pM GLP-1R
[6] = second run (n2), cAMP activity, read-out: Primary assay EC50 GLP-1R n2
[7] = first run (n1), cAMP activity of substituted and mono-lipidated peptides, read-out: Primary assay EC50 Gluc-R
[8] = second run (n2), cAMP activity, read-out: Primary assay EC50 Gluc-R
[9] = first run (n1), cAMP activity, read-out: Primary assay EC50 GIP-R
[10] = second run (n2), cAMP activity, read-out: Primary assay EC50 GIP-R
[11] = mono-lipidated peptides, mean of n1 and n2, read-out: INS1e assay EC50 Mean pM GLP-1R
[12] = mono-lipidated peptides, replicate n1, read-out: INS1e assay EC50 GLP-1R n1
[13] = mono-lipidated peptides, replicate n2, read-out: INS1e assay EC50 GLP-1R n2

T1 sequence (P43220 24-463): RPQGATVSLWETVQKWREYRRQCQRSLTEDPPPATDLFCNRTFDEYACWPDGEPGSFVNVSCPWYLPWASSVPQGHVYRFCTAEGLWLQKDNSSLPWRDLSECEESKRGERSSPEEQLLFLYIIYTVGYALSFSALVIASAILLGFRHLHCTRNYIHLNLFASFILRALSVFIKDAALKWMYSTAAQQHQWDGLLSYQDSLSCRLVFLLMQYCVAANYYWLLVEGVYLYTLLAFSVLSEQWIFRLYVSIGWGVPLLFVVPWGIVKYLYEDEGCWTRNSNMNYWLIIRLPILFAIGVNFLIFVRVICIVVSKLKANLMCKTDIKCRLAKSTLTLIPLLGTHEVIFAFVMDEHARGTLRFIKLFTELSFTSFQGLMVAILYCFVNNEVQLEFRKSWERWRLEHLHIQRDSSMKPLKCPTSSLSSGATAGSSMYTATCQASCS
T2 sequence (P47871 26-477): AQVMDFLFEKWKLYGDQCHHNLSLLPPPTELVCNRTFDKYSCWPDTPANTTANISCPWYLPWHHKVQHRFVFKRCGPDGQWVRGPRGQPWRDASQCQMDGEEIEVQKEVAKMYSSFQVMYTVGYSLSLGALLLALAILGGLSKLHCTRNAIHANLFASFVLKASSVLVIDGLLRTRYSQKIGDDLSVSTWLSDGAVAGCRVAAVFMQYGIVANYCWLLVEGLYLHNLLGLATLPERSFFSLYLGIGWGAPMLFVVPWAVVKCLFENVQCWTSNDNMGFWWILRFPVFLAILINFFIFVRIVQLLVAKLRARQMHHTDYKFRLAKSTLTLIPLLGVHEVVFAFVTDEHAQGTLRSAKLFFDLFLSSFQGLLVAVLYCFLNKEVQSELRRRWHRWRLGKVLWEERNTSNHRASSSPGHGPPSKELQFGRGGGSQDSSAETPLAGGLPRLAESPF

SMILES | EC50 [1, 4] | EC50 [1, 5] | EC50 [1, 6] | EC50 [2, 7] | EC50 [2, 8] | EC50 [3, 9] | EC50 [3, 10] | EC50 (GLP-1R (INS1e assay); [11]) | EC50 (GLP-1R (INS1e assay); [12]) | EC50 (GLP-1R (INS1e assay); [13]) | EC50 ([1]; bis-lipidated peptides, replicate n1, read-out: Primary assay EC50 GLP-1R n1) | EC50 ([1]; bis-lipidated peptides, replicate n2, read-out: Primary assay EC50 GLP-1R n2) | EC50 ([2]; bis-lipidated peptides, first replicate, read-out: Primary assay EC50 Gluc-R (n1)) | EC50 ([3]; bis-lipidated peptides, first replicate, read-out: Primary assay EC50 GIP-R (n1)) | EC50 (GLP-1R (INS1e assay); bis-lipidated peptides, mean of n1 and n2, read-out: INS1e assay EC50 Mean pM GLP-1R) | EC50 (GLP-1R (INS1e assay); bis-lipidated peptides, replicate n1, read-out: INS1e assay EC50 GLP-1R n1) | EC50 (GLP-1R (INS1e assay); bis-lipidated peptides, replicate n2, read-out: INS1e assay EC50 GLP-1R n2)
CCCCCCCCCCCCCCCCCC(=O)NCCOCCOCC(=O)NCCOCCOCC(=O)NCCOCCOCC(=O)NCCCC[C@H](NC(=O)[C@@H](NC(=O)[C@@H](NC(=O)[C@](C)(Cc1ccccc1)NC(=O)[C@H](C)NC(=O)[C@@H](NC(=O)[C@](C)(Cc1ccccc1)NC(=O)[C@H](CCC(=O)O)NC(=O)[C@](C)(CCCCN)NC(=O)[C@H](C)NC(=O)[C@H](C)NC(=O)[C@H](CCC(=O)O)NC(=O)CNC(=O)[C@H](CCC(=O)O)NC(=O)[C@H](CC(C)C)NC(=O)[C@](C)(Cc1ccccc1)NC(=O)[C@H](CO)NC(=O)[C@](C)(CO)NC(=O)[C@@H](NC(=O)[C@H](CC(=O)O)NC(=O)[C@H](CO)NC(=O)[C@@H](NC(=O)[C@](C)(Cc1ccccc1)NC(=O)[C@H](CO)NC(=O)CNC(=O)[C@H](CCC(=O)O)NC(=O)C(C)(C)NC(=O)[C@@H](N)Cc1c[nH]cn1)[C@@H](C)O)C(C)C)[C@@H](C)CC)C(C)C)C(C)C)C(=O)NCC(=O)NCC(N)=O [compound 190] | 9.7 pM | 7.2 pM | 4.7 pM | ≥ 26 nM | ≥ 26 nM | ≥ 26 nM | ≥ 26 nM | 44.1 pM | 39.7 pM | 48.5 pM |  |  |  |  |  |  | 
CC[C@H](C)[C@H](NC(=O)[C@](C)(Cc1ccccc1)NC(=O)[C@H](CCC(=O)O)NC(=O)[C@](C)(CCCCN)NC(=O)[C@H](C)NC(=O)[C@H](C)NC(=O)[C@H](CCC(=O)O)NC(=O)CNC(=O)[C@H](CCC(=O)O)NC(=O)[C@H](CC(C)C)NC(=O)[C@](C)(Cc1ccccc1)NC(=O)[C@H](CO)NC(=O)[C@](C)(CO)NC(=O)[C@@H](NC(=O)[C@H](CC(=O)O)NC(=O)[C@H](CO)NC(=O)[C@@H](NC(=O)[C@](C)(Cc1ccccc1)NC(=O)[C@H](CO)NC(=O)CNC(=O)[C@H](CCC(=O)O)NC(=O)C(C)(C)NC(=O)[C@@H](N)Cc1c[nH]cn1)[C@@H](C)O)C(C)C)C(=O)N[C@@H](C)C(=O)N[C@@](C)(Cc1ccccc1)C(=O)N[C@H](C(=O)N[C@H](C(=O)N[C@@H](CCCCNC(=O)COCCOCCNC(=O)COCCOCCNC(=O)CCCCCCCCCCCCCCCCC(=O)O)C(=O)NCC(=O)NCC(N)=O)C(C)C)C(C)C [compound 198] | 41 pM | 27.9 pM | 15 pM | ≥ 26 nM | ≥ 26 nM | ≥ 26 nM | ≥ 26 nM | 1140 pM | 1380 pM | 890 pM |  |  |  |  |  |  | 
CCCCCCCCCCCC(=O)N[C@@H](CCC(=O)NCCOCCOCC(=O)NCCOCCOCC(=O)NCCCC[C@H](NC(=O)[C@H](C)NC(=O)[C@@H](NC(=O)[C@H](Cc1ccc(OC)cc1)NC(=O)[C@H](CCC(=O)O)NC(=O)[C@](C)(CCCCN)NC(=O)[C@H](C)NC(=O)[C@H](C)NC(=O)[C@H](CCC(=O)O)NC(=O)CNC(=O)[C@H](CCC(=O)O)NC(=O)[C@H](CC(C)C)NC(=O)[C@H](CCCCNC(=O)COCCOCCNC(=O)COCCOCCNC(=O)CC[C@H](NC(=O)CCCCCCCCCCC)C(=O)O)NC(=O)[C@H](CO)NC(=O)[C@](C)(CO)NC(=O)[C@@H](NC(=O)[C@H](CC(=O)O)NC(=O)[C@H](CO)NC(=O)[C@@H](NC(=O)[C@](C)(Cc1ccccc1)NC(=O)[C@H](CO)NC(=O)CNC(=O)[C@H](CCC(=O)O)NC(=O)C(C)(C)NC(=O)[C@@H](N)Cc1c[nH]cn1)[C@@H](C)O)C(C)C)[C@@H](C)CC)C(=O)N[C@H](C(=O)N[C@H](C(=O)N[C@@H](CCC(=O)O)C(=O)NCC(=O)NCC(N)=O)C(C)C)C(C)C)C(=O)O [compound 406] (H-H[Aib]EGS[αMeF]TSDV[αMeS]SK([AEEA-AEEA-γGlu-Lauroyl])LEGEAA[αMeK]EY(Me)IAK([AEEA-AEEA-γGlu-Lauroyl])VVEGG-NH2; N-terminus assumed) |  |  |  |  |  |  |  |  |  |  | 2.19 pM | 2.31 pM | ≥ 21.5 nM | ≥ 21.5 nM | 94 pM | 101 pM | 87.2 pM
